Tests used:
[1] = test system: rat CIA model; test: CIA model 2 (rat collagen induced arthritis, ankle diameter); type: in vivo, Female Lewis rats
Excerpt: Female Lewis rats (n=76) that weighed 165-194 grams (mean approx. 178 g) on arthritis day 0 were obtained from Charles River Laboratories, Inc., Wilmington, Mass., (ref#393739). Animals were identified by a distinct number at the base of the tail delineating group and animal number.
Upon arrival, animals were housed 4/cage in shoe-box polycarbonate cages and acclimated for 8 days prior to being immunized with type II collagen. No concurrent medications were given.
During the acclimation and study periods, animals were housed in a laboratory environment with temperatures ranging 19-25° […]. and relative humidity of 30%-70%. Automatic timers provided 12 h of light and 12 h of dark. Animals were allowed access ad libitum to food and water.
Acclimated female Lewis rats were anesthetized with Isoflurane and receive subcutaneous/intradermal (SC/ID) injections with 300 μL of Freund's Incomplete Adjuvant (Difco, Detroit, Mich.) containing 2 mg/mL bovine type II collagen (Elastin Products, Owensville, Mo.) at the base of the tail and 2 sites on the back on day −9 and on day −3.
Collagen was prepared by making a 4 mg/mL solution in 0.01N Acetic acid. Equal volumes of collagen and Freund's incomplete adjuvant, were emulsified by hand mixing until a bead of this material holds its form when placed in water. Each animal received 300 μL of the mixture on each occasion divided over 3 subcutaneous sites on back.
On study day 1, onset of arthritis occurred and animals were randomized into treatment groups. After randomization, all cages were labelled with protocol number, group number, and animal numbers. Randomization into each group was done after ankle joint swelling was obviously established and there was good evidence of bilateral disease.
Animals with established type II collagen arthritis were treated daily (QD) by the oral (PO) route for 13 days with vehicle (methylcellulose 0.5% (w/v)), or with active compound(s) prepared in methylcellulose, 0.5% (w/v). Oral dosing was initiated on arthritis day 1 and continued daily (QD at 24 h intervals) through day 13. Animals were terminated on arthritis day 14.
The severity of the arthritis was evaluated by measuring the diameter of both ankles on the animals. Caliper measurements of ankles were taken every day beginning on day 0, with a Digitrix II micrometer (Fowler & NSK). Baseline measurements were taken using one ankle with values rounded to one-thousandth of an inch. Measurements were confirmed as clinically normal (0.260-0.264 in) by comparison with historical values for rats based on a range of body weights. Baseline measurements were then applied to both ankles, and these values remain with the animal so long as the ankle was clinically normal with good definition of all the ankle bones and no evidence of inflammation. Animals were terminated on day 14.

[2] = Target inhibition: circulating levels in healthy volunteers as multiples of whole blood assay IC50; type: in vivo, human
Procedure: The compound according to Formula II was dosed daily in healthy volunteers at 200 mg QD and 100 mg BID.
The resulting levels of Formula II and Formula I were then measured and plotted (FIG. 5) as multiples of their respective IC50 as determined by the Whole Blood assay described above in Example 3.4.

Nc1nc2cccc(-c3ccc(CN4CCS(=O)(=O)CC4)cc3)n2n1 [Formula I, 5-[4-(1,1-Dioxothiomorpholin-4-ylmethyl)-phenyl]-[1,2,4]triazolo[1,5-a]pyridin-2-ylamine]
significance to vehicle control (ANOVA) in the CIA second model ([1]; group G: Formula I 25 mg/kg PO QD): mg/kg (*) (((*) = p ≦ 0.05 ANOVA to vehicle control)) | ankle diameter ([1]; group G: Formula I 25 mg/kg PO QD, day 0): 0.2629 inches | ankle diameter ([1]; group G: Formula I 25 mg/kg PO QD, day 1): 0.2717 inches | ankle diameter ([1]; group G: Formula I 25 mg/kg PO QD, day 2): 0.2747 inches | ankle diameter ([1]; group G: Formula I 25 mg/kg PO QD, day 3): 0.2826 inches | ankle diameter ([1]; group G: Formula I 25 mg/kg PO QD, day 4): 0.2892 inches | ankle diameter ([1]; group G: Formula I 25 mg/kg PO QD, day 5): 0.2973 inches | ankle diameter ([1]; group G: Formula I 25 mg/kg PO QD, day 6): 0.3064 inches | ankle diameter ([1]; group G: Formula I 25 mg/kg PO QD, day 7): 0.3108 inches | ankle diameter ([1]; group G: Formula I 25 mg/kg PO QD, day 8): 0.3150 inches | ankle diameter ([1]; group G: Formula I 25 mg/kg PO QD, day 9): 0.3089 inches | ankle diameter ([1]; group G: Formula I 25 mg/kg PO QD, day 10): 0.3046 inches | ankle diameter ([1]; group G: Formula I 25 mg/kg PO QD, day 11): 0.3025 inches | ankle diameter ([1]; group G: Formula I 25 mg/kg PO QD, day 12): 0.3006 inches | ankle diameter ([1]; group G: Formula I 25 mg/kg PO QD, day 13): 0.2996 inches | ankle diameter ([1]; group G: Formula I 25 mg/kg PO QD, day 14): 0.3016 inches | significance to vehicle control (ANOVA) in the CIA second model ([1]; group H: Formula I 50 mg/kg PO QD): mg/kg (*) (((*) = p ≦ 0.05 ANOVA to vehicle control)) | ankle diameter ([1]; group H: Formula I 50 mg/kg PO QD, day 0): 0.2624 inches | ankle diameter ([1]; group H: Formula I 50 mg/kg PO QD, day 1): 0.2718 inches | ankle diameter ([1]; group H: Formula I 50 mg/kg PO QD, day 2): 0.2705 inches | ankle diameter ([1]; group H: Formula I 50 mg/kg PO QD, day 3): 0.2814 inches | ankle diameter ([1]; group H: Formula I 50 mg/kg PO QD, day 4): 0.2886 inches | ankle diameter ([1]; group H: Formula I 50 mg/kg PO QD, day 5): 0.2970 inches | ankle diameter ([1]; group H: Formula I 50 mg/kg PO QD, day 6): 0.3061 inches | ankle diameter ([1]; group H: Formula I 50 mg/kg PO QD, day 7): 0.3110 inches | ankle diameter ([1]; group H: Formula I 50 mg/kg PO QD, day 8): 0.3160 inches | ankle diameter ([1]; group H: Formula I 50 mg/kg PO QD, day 9): 0.3085 inches | ankle diameter ([1]; group H: Formula I 50 mg/kg PO QD, day 10): 0.3032 inches | ankle diameter ([1]; group H: Formula I 50 mg/kg PO QD, day 11): 0.3041 inches | ankle diameter ([1]; group H: Formula I 50 mg/kg PO QD, day 12): 0.3039 inches | ankle diameter ([1]; group H: Formula I 50 mg/kg PO QD, day 13): 0.3014 inches | ankle diameter ([1]; group H: Formula I 50 mg/kg PO QD, day 14): 0.2999 inches | Ratio [blood circulating dose]/[circulating dose at IC50 quantity] ([2]; Formula II at 100 mg BID, time point 0 h): 0.97 | Ratio [blood circulating dose]/[circulating dose at IC50 quantity] ([2]; Formula II at 100 mg BID, time point 0.5 h): 0.93 | Ratio [blood circulating dose]/[circulating dose at IC50 quantity] ([2]; Formula II at 100 mg BID, time point 1 h): 0.88 | Ratio [blood circulating dose]/[circulating dose at IC50 quantity] ([2]; Formula II at 100 mg BID, time point 2 h): 0.97 | Ratio [blood circulating dose]/[circulating dose at IC50 quantity] ([2]; Formula II at 100 mg BID, time point 3 h): 1.00 | Ratio [blood circulating dose]/[circulating dose at IC50 quantity] ([2]; Formula II at 100 mg BID, time point 5 h): 1.13 | Ratio [blood circulating dose]/[circulating dose at IC50 quantity] ([2]; Formula II at 100 mg BID, time point 8 h): 0.96 | Ratio [blood circulating dose]/[circulating dose at IC50 quantity] ([2]; Formula II at 100 mg BID, time point 12 h): 0.86 | Ratio [blood circulating dose]/[circulating dose at IC50 quantity] ([2]; Formula II at 100 mg BID, time point 12.5 h): 0.93 | Ratio [blood circulating dose]/[circulating dose at IC50 quantity] ([2]; Formula II at 100 mg BID, time point 13 h): 0.88 | Ratio [blood circulating dose]/[circulating dose at IC50 quantity] ([2]; Formula II at 100 mg BID, time point 14 h): 0.97 | Ratio [blood circulating dose]/[circulating dose at IC50 quantity] ([2]; Formula II at 100 mg BID, time point 15 h): 1.00 | Ratio [blood circulating dose]/[circulating dose at IC50 quantity] ([2]; Formula II at 100 mg BID, time point 17 h): 1.13 | Ratio [blood circulating dose]/[circulating dose at IC50 quantity] ([2]; Formula II at 100 mg BID, time point 20 h): 0.96 | Ratio [blood circulating dose]/[circulating dose at IC50 quantity] ([2]; Formula II at 100 mg BID, time point 24 h): 0.86 | Ratio [blood circulating dose]/[circulating dose at IC50 quantity] ([2]; Formula II at 200 mg QD, time point 0 h): 0.69 | Ratio [blood circulating dose]/[circulating dose at IC50 quantity] ([2]; Formula II at 200 mg QD, time point 0.5 h): 0.65 | Ratio [blood circulating dose]/[circulating dose at IC50 quantity] ([2]; Formula II at 200 mg QD, time point 1 h): 0.69 | Ratio [blood circulating dose]/[circulating dose at IC50 quantity] ([2]; Formula II at 200 mg QD, time point 2 h): 0.84 | Ratio [blood circulating dose]/[circulating dose at IC50 quantity] ([2]; Formula II at 200 mg QD, time point 3 h): 0.96 | Ratio [blood circulating dose]/[circulating dose at IC50 quantity] ([2]; Formula II at 200 mg QD, time point 5 h): 1.00 | Ratio [blood circulating dose]/[circulating dose at IC50 quantity] ([2]; Formula II at 200 mg QD, time point 8 h): 0.93 | Ratio [blood circulating dose]/[circulating dose at IC50 quantity] ([2]; Formula II at 200 mg QD, time point 24 h): 0.84
